Starred links: 1 amine or outer side, 2 acyl side, 3 side chain; linkers in the order of their positions; H or OH if unused. Positions of bridges follow the written chain, without caps; N, C: chain ends. Non-standard residues stand in square brackets, D forms with d. Residues, ends and D or L forms follow the SMILES beside them. Chains are numbered I, II in the order given. Actinocin(9to1) = Cc1c2oc3c(C)ccc(C(=O)[*:1])c3nc-2c(C(=O)[*:2])c(N)c1=O; NMeV = CN[CH](C(=O)O)C(C)C; Sar = CNCC(=O)O
Test: method code SF, from Hansch, C. & Leo, A. (1987). Log P database [Dataset]. Pomona College Medicinal Chemistry Project.

Row | SMILES | logP | further results
1 | O=c1cccccc1O | – | logD (pH 5.0): 0.75
2 | OCC(F)(F)F | 0.32 | –
3 | COc1cccc2c1C(=O)c1c(O)c3c(c(O)c1C2=O)CC(O)(C(=O)CN1CCOCC1)CC3OC1CC(N)C(O)C(C)O1 (stereo unspecified) | 0.23 | –
4 | CNC(=S)NC12CC3CC(CC(C3)C1)C2 | 2.67 | –
5 | OCCOCCN1CCN(CCCN2c3ccccc3Sc3ccc(C(F)(F)F)cc32)CC1 | 4.49 | –
6 | CNCc1cccnc1 | – | logD (pH 11.0): 0.39
7 | CN(C)CCCN1c2ccccc2Sc2ccc(S(C)(=O)=O)cc21 | 3.5 | –
8 | Oc1ccnc2cc(C(F)(F)F)ccc12 | 2.05 | –
9 | CCOCC1CNc2nc(N)[nH]c(=O)c2N1 (stereo unspecified) | -0.68 | –
10 | NC(=O)/C=C/c1ccccc1 | 1.42 | –
11 | CC1=Nc2ccccc2S(=O)(=O)N1 | 0.29 | –
12 | CC(=O)Nc1cccc(N(C)C)c1 | 1.29 | –
13 | Oc1ccccc1-c1ccccc1 | 3.09 | –
14 | OC(O)(C(F)(F)F)C(F)(F)F | 1.46 | –
15 | Nc1ncco1 | -0.18 | –
16 | OCC(O)COc1ccccc1 (stereo unspecified) | 0.7 | –
17 | CCc1cnc(C=Cc2ccc([N+](=O)[O-])o2)nc1 | 1.55 | –
18 | CCc1ccc2c(c1)C(=O)c1ccc(NC(C)=O)cc1S2(=O)=O | 3.44 | –
19 | O=C(O)c1ccncc1 | -0.57 | –
20 | CCOC(=O)NC | 0.34 | –
21 | NS(=O)(=O)NCCc1ccccc1 | 0.81 | –
22 | CCC1(C(C)CC(C)O)C(=O)NC(=O)NC1=O (stereo unspecified) | 0.35 | –
23 | CN(C)c1cccc(C(N)=O)c1 | 0.95 | –
24 | CS(=O)(=O)N(c1ccccc1)S(C)(=O)=O | 0.62 | –
25 | FC(F)(F)C(F)(F)c1ccccc1 | 3.36 | –
26 | Oc1c(Br)cc(Br)c(O)c1Br | – | logD (pH 1.4): 4.37

Row | SMILES | logP | further results
27 | CCCC1CNC(C(=O)NC(C(C)O)C2OC(SC)C(O)C(O)C2O)C1 (stereo unspecified) | – | logD (pH 12.3): 0.04
28 | Cn1c(SCC2=C(C(=O)O)N3C(=O)C(NC(=O)Cc4cccs4)C3SC2)nnc(O)c1=O (stereo unspecified) | – | logD (pH 3.0): -0.52
29 | NC(=O)C(F)(F)F | 0.12 | –
30 | C[C@]12CCC(=O)C=C1CC[C@@H]1[C@@H]2CC[C@]2(C)C(=O)CC[C@@H]12 | 2.75 | –
31 | OC(CF)CF | -0.36 | –
32 | Cc1nnc(SCC2=C(C(=O)O)N3C(=O)C(NC(=O)Cc4cccs4)C3SC2)s1 (stereo unspecified) | – | logD (pH 3.0): 0.67
33 | Cc1cccc(NC(=O)c2ccccc2)c1 | 2.75 | –
34 | CCOC(CP(=O)(OCC)OCC)OCC | 0.69 | –
35 | CO[C@H]1C=CO[C@@]2(C)Oc3c(C)c(O)c4c(O)c(c(C=NN5CCNCC5)c(O)c4c3C2=O)NC(=O)C(C)=CC=C[C@H](C)[C@H](O)[C@@H](C)[C@@H](O)[C@@H](C)[C@H](OC(C)=O)[C@@H]1C | 1.12 | –
36 | NC(N)=Nc1ccccc1 | 0.53 | –
37 | CCCCCCCCOC(=O)c1cccc(C(=O)OCCCCCCCC)c1 | 5.55 | –
38 | COCC(=O)Nc1ccc(Cl)c(Cl)c1 | 2.77 | –
39 | N#CC(C#N)=C(c1ccccc1)c1ccccc1 | 3.55 | –
40 | CCNc1nc(NC(C)C)nc(SC)n1 | 2.98 | –
41 | O=C1OC(c2ccccc2)c2ccccc21 (stereo unspecified) | 2.64 | –
42 | O=NN(CCF)C(=O)NCCCl | 0.95 | –
43 | CC(=O)NCCC(=O)N(C)c1ccc(S(=O)(=O)N(C)C)cc1 | -0.35 | –
44 | N#CC(=Cc1ccccc1)C(=O)Nc1ccccc1 | 3.41 | –
45 | CSC(=O)Nc1ccccc1 | 2.4 | –
46 | CCCCc1ccc(C(=O)O)nc1 | – | logD (pH 2.0): 0.68
47 | NC(=S)c1ccccc1N | 0.99 | –
48 | Cc1ccc(CO)cc1 | 1.59 | –
49 | O=C(c1ccccc1)c1cccc(NS(=O)(=O)C(F)F)c1 | – | logD (pH 5.4): 2.86
50 | Oc1cc(O)cc(O)c1 | – | logD (pH 1.4): 0.16
51 | CC(C)CCO[N+](=O)[O-] | 2.84 | –
52 | Ic1cn[nH]c1 | 1.7 | –

Row | SMILES | logP | further results
53 | CCC[C@@H]1C[C@@H](C(=O)N[C@@H]([C@H]2O[C@H](SC)[C@H](O)[C@@H](O)[C@H]2O)[C@@H](C)O)N(CC)C1 | – | logD (pH 12.0): 1.02
54 | C=CCn1c(C)c(N(C)C)c(=O)n(-c2ccccc2)c1=O | – | logD (pH 7.4): 1.44
55 | O=C1CCCN1CCOc1ccc([N+](=O)[O-])cc1 | 1.33 | –
56 | O=c1[nH]cc(Br)c(=O)[nH]1 | -0.21 | –
57 | Nc1n[nH]c(N)n1 | – | logD (pH 7.4): -1.61
58 | O=c1cnc2ccccc2[nH]1 | 0.8 | –
59 | c1ccc(-n2cccn2)cc1 | 2.2 | –
60 | COC(=O)CNC(=O)c1ccc(N)cc1 | -0.23 | –
61 | CO[C@H]1O[C@H](CO)[C@@H](O)[C@H](NC(=O)N(C)N=O)[C@H]1O | – | logD (pH 7.4): -1.45
62 | CC(O)CCC(=O)c1ccoc1 (stereo unspecified) | 0.84 | –
63 | CCOC(=O)C(=Cc1cccc(OCC)c1)C(=O)OCC | 3.39 | –
64 | COc1cccc(OC)n1 | 2.3 | –
65 | CCC1=Nc2ccc(Cl)cc2S(=O)(=O)N1 | 1.62 | –
66 | O=C(CCc1ccccc1)Nc1ccc(Cl)c(Cl)c1 | 4.85 | –
67 | CCCCC(=Cc1ccccc1)C(=O)NC(C)CC (stereo unspecified) | 4.07 | –
68 | CCOC(=O)C(=Cc1cccc(OCC)c1)C(C)=O | 2.71 | –
69 | O=C1Cc2ccccc2CCc2ccccc21 | 2.58 | –
70 | O=C(O)C(Cl)(Cl)Cl | 1.33 | –
71 | Clc1nnnn1-c1ccccc1 | 1.48 | –
72 | CCCCCCCCN(CCCCCCCC)N=Cc1c2c(O)c3c(O)c(C)c4c(c3c1O)C(=O)C(C)(O/C=C\C(OC)C(C)C(OC(C)=O)C(C)C(O)C(C)C(O)C(C)/C=C\C=C(\C)C(=O)N2)O4 (stereo unspecified) | 3.6 | –
73 | N#CN=[N+]([O-])c1cccc(Br)c1 | 2.56 | –
74 | CNC(=O)ON=CC(C)(C)[N+](=O)[O-] | 0.36 | –
75 | COC(=O)c1cc2nc(S(=O)Cc3ncccc3C)[nH]c2cc1C (stereo unspecified) | – | logD (pH 5.4): 2.4
76 | CN1CCCC[C@H]1c1cccnc1 | – | logD (pH 11.0): 0.96
77 | CN(C)/N=N/c1ccccc1I | – | logD (pH 2.0): 3.5
78 | O=c1[nH]nc(Sc2ccccc2)[nH]1 | 1.46 | –

Row | SMILES | logP | further results
79 | Cc1ccc(Nc2ccc(O)c3c2C(=O)c2ccccc2C3=O)cc1 | 3.12 | –
80 | Cc1c2oc3c(C)ccc(C(=O)NC4C(=O)NC(C(C)C)C(=O)N5CCCC5C(=O)N(C)CC(=O)N(C)C(C(C)C)C(=O)OC4C)c3nc-2c(C(=O)NC2C(=O)NC(C(C)C)C(=O)N3CCCC3C(=O)N(C)CC(=O)N(C)C(C(C)C)C(=O)OC2C)c(N)c1=O (stereo unspecified) (I: TVP[Sar][NMeV] / II: TVP[Sar][NMeV]; ester I:1-I:C, II:1-II:C; linker I:N-II:N via Actinocin(9to1); configuration not given here) | – | logD (pH 7.4): 3.21
81 | O=[N+]([O-])c1ccc(/C=C/c2cccc(CO)n2)o1 | 1.37 | –
82 | CCCCC1OC(=O)c2cc(NC(C)=O)ccc21 (stereo unspecified) | 2.77 | –
83 | O=C(O)c1ncccc1O | – | logD (pH 2.0): -1.27
84 | CC1=Nc2c([N+](=O)[O-])cc(Cl)cc2S(=O)(=O)N1 | 0.85 | –
85 | c1ccc2[nH]nnc2c1 | 1.33 | –
86 | COc1ccc([N+]([O-])=NC#N)cc1 | 2.15 | –
87 | COC(=O)c1ccsc1 | 1.76 | –
88 | Cc1cc(N(C)S(=O)(=O)c2ccc(N)cc2)no1 | – | logD (pH 6.0): 1.75
89 | CC(=O)Nc1ccccc1C(C)C | – | logD (pH 7.4): 1.71
90 | COc1ccccc1OCC(=O)O | – | logD (pH 1.0): 0.98
91 | COC(=O)NS(=O)(=O)c1ccc(N)cc1 | -0.27 | –
92 | CC1=Nc2ccc(C)cc2S(=O)(=O)N1 | 0.81 | –
93 | O=[N+]([O-])c1cccc2ncccc12 | 1.86 | –
94 | CCCCCc1ccc(O)cc1 | 4.06 | –
95 | CCC(C)c1ccccc1OCC(=O)O (stereo unspecified) | 3.32 | –
96 | CCCC1CNC(C(=O)NC(C(C)Br)C2OC(SC)C(O)C(O)C2O)C1 (stereo unspecified) | – | logD (pH 12.3): 1.77
97 | O=C(C(=O)c1ccccc1)c1ccccc1 | 3.38 | –
98 | Cc1cccc([N+]([O-])=NC#N)c1 | 2.49 | –
99 | CC1=NCCN1 | 0.52 | –
100 | O=S1(=O)NC(C2CCCCC2)=Nc2ccccc21 | 2.2 | –
101 | OC[C@H]1O[C@@H](n2cnc3c(=S)nc[nH]c32)[C@H](O)[C@@H]1O | – | logD (pH 7.4): -0.6

Reference: the SangsterLogP compilation
